Measurements reported in ChEMBL document CHEMBL3627599, “The antioxidant properties of salicylate derivatives: A possible new mechanism of anti-inflammatory activity” (Bioorg Med Chem Lett, 2015).

Experiment: Antioxidant activity assessed as DPPH free radical scavenging activity at 1 mM after 30 mins
Assay type: physicochemical
Conditions: 0.5 h, 1000 µM; call rule not given here

| Activity | SMILES |
| --- | --- |
| Active | CC(=O)Nc1ccc(O)c(C(N)=O)c1 |

Experiment: Antioxidant activity assessed as DPPH free radical scavenging activity at 0.01 to 1 mM after 30 mins
Assay type: physicochemical
Conditions: 0.5 h, 1000 µM

| Activity | SMILES |
| --- | --- |
| Active | Nc1ccc(O)c(C(=O)O)c1 [MESALAMINE] |
| Active | Cc1ccc(O)c(C(=O)O)c1 |
| Active | O=C(O)c1cc(O)ccc1O [GENTISIC ACID] |
| Active | COc1ccc(O)c(C(=O)O)c1 |
| Active | COC(=O)c1cc(O)ccc1O [METHYL 2,5-DIHYDROXYBENZOATE] |
| Active | NC(=O)c1cc(O)ccc1O |

The remaining lines, values behind:

| SMILES | Activity |
| --- | --- |
| O=C(O)c1cc(Cl)ccc1O [5-CHLOROSALICYLIC ACID] | Active |
| O=C(O)c1ccccc1O [SALICYLIC ACID] | Active |
| O=C(O)c1cc([N+](=O)[O-])ccc1O | Active |
